{"source": "patent US20150258052A1", "about": "“METHODS OF USING FEXARAMINE AND AGENTS THAT INCREASE SYMPATHETIC NERVOUS SYSTEM ACTIVITY TO PROMOTE BROWNING OF WHITE ADIPOSE TISSUE” (Salk Institute for Biological Studies, priority 2014, published 2015)", "key": {"[1]": {"test_system": "FXR target gene expression", "experiment": "FXR target gene expression (qPCR) in intestine, liver and kidney after acute PO or IP fexaramine", "assay_type": "in vivo, mice", "procedure": "FIGS. 1A-1C are a comparative expression chart and two bar charts, respectively, illustrating increased levels of FXR target gene expression in the intestine relative to expression in the liver and kidney. 8 week-old mice were treated with vehicle or fexaramine (100 mg/kg) via oral (PO) or intraperitoneal (IP) injection for three days (FIGS. 1A-1B) or five days (FIG. 1C).\nFXR target gene expression was analyzed by qPCR. Gene expression was normalized against a vehicle-treated group.\nData represent the mean±SD. Statistical analysis was performed with the Student's t test. *p<0.05, **p<0.01.\nFIG. 1F is a bar chart illustrating that orally delivered Fexaramine is intestinally-restricted. Mice received vehicle or Fexaramine (100 mg/kg) via per os (PO) or intraperitoneal (IP) injection for 5 days. Expression of the FXR target gene SHP after PO or IP injection in selected tissues is shown.\nUpon exploration of the in vivo effects of fexaramine (Fex) administration, it was discovered that due to ineffectual absorption, oral (PO) and intraperitoneal (IP) drug delivery produced very different effects (FIGS. 1D and 1E)."}, "[2]": {"test_system": "brown adipose tissue (BAT)", "experiment": "Energy expenditure and brown adipose tissue (BAT) analysis in Fex-treated DIO mice", "assay_type": "in vivo", "procedure": "Mice were fed HFD for 14 weeks and then administered vehicle or fexaramine (100 mg/kg) daily by oral administration for 5 weeks with HFD. Data represent the mean±STD. Statistical analysis was performed with the Student's t test (*p<0.05, **p<0.01).\nFIG. 6M is a bar chart showing the effect of fexaramine on respiratory exchange ratio (RER). Mice were fed on HFD for 14 weeks, and then administered daily oral injections of vehicle or fexaramine (100 mg/kg) for 5 weeks with HFD.\nFIG. 6N is a bar graph showing the effect of fexaramine administration on serum lactate concentrations. Mice were fed on HFD for 14 weeks, and then administered daily oral injections of vehicle or fexaramine (100 mg/kg) for 5 weeks with HFD. […] Data represent the mean±STD. Statistical analysis was performed with the Student's t test (*p<0.05, **p<0.01).\n(FIG. 6E). […] Gene expression analysis confirmed the induction of ERRγ, PGC-1α, and PGC-1β, as well as a number of their target genes involved in thermogenesis, mitochondrial biogenesis, and fatty acid oxidation in BAT (FIG. 6G)."}, "[3]": {"settings": "PO, 100 mg/kg, listed as fexaramine"}, "[4]": {"settings": "DIO mice, 100 mg/kg PO 5 weeks, listed as fexaramine, 100 mg/kg"}}, "data": [{"smiles": "COC(=O)/C=C/c1cccc(N(Cc2ccc(-c3ccc(N(C)C)cc3)cc2)C(=O)C2CCCCC2)c1", "note": "[Fex, fexaramine]", "values": [{"measurement": "induction of FXR target gene SHP in intestine", "setting": "[1]; IP, 100 mg/kg for five days", "result": "robust induction"}, {"measurement": "FXR target gene expression in liver, kidney and intestines", "setting": "[1]; IP, 100 mg/kg, five days", "result": "increases FXR target gene expression in the liver and kidney, in addition to the intestines"}, {"measurement": "induction of SHP in liver and kidney", "setting": "[1]; PO versus IP, 100 mg/kg for five days", "result": "only seen in liver and kidney after IP treatment"}, {"measurement": "FXR target gene expression (IBABP, OSTα, FGF15) in intestine", "setting": "[1]; PO, 100 mg/kg", "result": "induced multiple FXR target genes in the intestine"}, {"measurement": "FXR target gene expression in liver or kidney", "setting": "[1]; PO, 100 mg/kg", "result": "failed to affect the expression of these genes in liver or kidney"}, {"measurement": "induction of FXR target gene SHP in intestine", "setting": "[1]; PO, 100 mg/kg for five days", "result": "robust induction"}, {"measurement": "FXR target gene expression (IBABP, OSTα, FGF15) in intestine", "setting": "[1]; [3]", "result": "substantially enhances FXR target gene expression in the intestine"}, {"measurement": "FXR target gene expression in liver or kidney", "setting": "[1]; [3]", "result": "not in the liver or kidney"}, {"measurement": "OXPHOS gene expression changes in inguinal, gonadal and brown adipose depots (RNA-sequencing)", "setting": "[2]; DIO mice, 100 mg/kg PO 5 weeks", "result": "selectively enhance OXPHOS activity only in BAT"}, {"measurement": "PKA activity in BAT", "setting": "[2]; DIO mice, 100 mg/kg PO 5 weeks", "result": "increased PKA activity"}, {"measurement": "accumulation of lipid vesicles in BAT (histology)", "setting": "[2]; DIO mice, 100 mg/kg PO 5 weeks", "result": "markedly reduced"}, {"measurement": "ambulatory counts (activity)", "setting": "[2]; DIO mice, 100 mg/kg PO 5 weeks", "result": "more active than control mice"}, {"measurement": "carbon dioxide production (VCO2)", "setting": "[2]; DIO mice, 100 mg/kg PO 5 weeks", "result": "exhaled more carbon dioxide"}, {"measurement": "gene expression of ERRγ, PGC-1α, PGC-1β and target genes in BAT", "setting": "[2]; DIO mice, 100 mg/kg PO 5 weeks", "result": "induction"}, {"measurement": "oxygen consumption (VO2)", "setting": "[2]; DIO mice, 100 mg/kg PO 5 weeks", "result": "consistently higher oxygen consumption"}, {"measurement": "phosphorylation level of p38 in BAT", "setting": "[2]; DIO mice, 100 mg/kg PO 5 weeks", "result": "increased the phosphorylation level of p38"}, {"measurement": "serum lactate levels", "setting": "[2]; DIO mice, 100 mg/kg PO 5 weeks, 100 mg/kg", "result": "significantly reduced"}, {"measurement": "respiratory exchange ratio (RER)", "setting": "[2]; [4]", "result": "No changes were observed"}, {"measurement": "serum lactate levels", "setting": "[2]; [4]", "result": "significantly decreased"}, {"measurement": "food intake", "setting": "[2]; DIO mice, first week of treatment", "result": "not attributable to difference in food intake"}, {"measurement": "DIO2 (downstream target of TGR5) in BAT", "setting": "[2]; oral Fex", "result": "induce DIO2"}]}]}
